PubChem BioAssay (NCI)
Values joined by “and” are separate entries in the source; they are usually repeats but may differ in a detail not shown here. Identical values can stand only once.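 How tested: cells in 96-well plates exposed to compound for 48 hours at five concentrations. GI50 = concentration required for 50% inhibition of growth. The concentration for full growth arrest is given as TGI.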

Tests used:
Test in all cases: DTP human tumour cell line panel, 48 h
UO-31 renal = tested on: UO-31 renal
HCT-15 colon = tested on: HCT-15 colon
SK-MEL-28 melanoma = tested on: SK-MEL-28 melanoma
HCT-116 colon = tested on: HCT-116 colon
SK-OV-3 ovarian = tested on: SK-OV-3 ovarian
EKVX NSCLC = tested on: EKVX NSCLC
CAKI-1 renal = tested on: CAKI-1 renal
SF-539 CNS = tested on: SF-539 CNS
U251 CNS = tested on: U251 CNS
HT29 colon = tested on: HT29 colon

| SMILES | GI50 (UO-31 renal) [µM] | TGI (UO-31 renal) [µM] | GI50 (HCT-15 colon) [µM] | TGI (HCT-15 colon) [µM] | GI50 (SK-MEL-28 melanoma) [µM] | TGI (SK-MEL-28 melanoma) [µM] | GI50 (HCT-116 colon) [µM] | TGI (HCT-116 colon) [µM] | GI50 (SK-OV-3 ovarian) [µM] | TGI (SK-OV-3 ovarian) [µM] | GI50 (EKVX NSCLC) [µM] | TGI (EKVX NSCLC) [µM] | GI50 (CAKI-1 renal) [µM] | TGI (CAKI-1 renal) | GI50 (SF-539 CNS) [µM] | TGI (SF-539 CNS) [µM] | GI50 (U251 CNS) [µM] | TGI (U251 CNS) [µM] | GI50 (HT29 colon) [µM] | TGI (HT29 colon) [µM] |
| --- | --- | --- | --- | --- | --- | --- | --- | --- | --- | --- | --- | --- | --- | --- | --- | --- | --- | --- | --- | --- |
| CC(=O)Oc1c(C(=O)[O-])cc(C(C)C)cc1C(C)C.CC(=O)Oc1c(C(=O)[O-])cc(C(C)C)cc1C(C)C.CC(=O)Oc1c(C(=O)[O-])cc(C(C)C)cc1C(C)C.CC(=O)Oc1c(C(=O)[O-])cc(C(C)C)cc1C(C)C.[Cu+2].[Cu+2] | 50.7 | > 100 | 27.5 | > 100 | 17.9 | 33.4 | 28.7 | > 100 | 14.4 | 35.4 | 37.5 | 73.2 | > 100 | > 100 µM | 72.3 | > 100 | 19.9 | 51.5 | 37.5 | > 100 |
| OCCCCC#Cc1ccccc1C#Cc1cccc(C(F)(F)F)c1 | 17.2 | 31.6 | 16.3 | 30.8 | 12 | 25 | 20.9 | 49.8 | 19.7 | 35.3 | 17.9 | 34.7 | 21.3 | 36.5 µM | 20.1 | 38 | 17.2 | 31.6 | 10.5 | 23.4 |
| Cc1cnc(C(=O)NNc2nc3sc4c(c3c(=O)[nH]2)C(C)CCC4)cn1 (stereo unspecified) | 0.414 | 3.64 | 0.411 | 23.6 | 1.37 | 29.6 | 0.672 | 17 | 0.524 | 11.1 | 1.19 | 78.2 | 1.5 | 18.5 µM | 0.918 | 10.2 | 0.603 | > 100 | 1.61 | > 100 |
| O=NN(CCCl)C(=O)NC1CCC(CC(=O)O)CC1 (stereo unspecified) |  | > 100 |  | > 100 |  | > 100 |  | > 100 |  | > 100 |  | > 100 |  | > 100 µM |  | > 100 |  | > 100 |  | > 100 |
| CCOC(=O)/C(=C\c1cccc(C)c1)C(C)=O |  | 33.7 |  | 38.9 |  | 30.5 |  | 30.4 |  | > 100 |  | > 100 |  | 98.8 µM |  | 40.3 |  | 26.2 |  | > 100 |
| Nc1nc(=S)c2c(ncn2CCO)[nH]1 |  | > 100 |  | > 100 |  | > 100 |  | > 100 |  | > 100 |  | > 100 |  | > 100 µM |  | > 100 |  | > 100 |  | > 100 |
| ClCCOCCn1cnc2c(Cl)nc(Cl)nc21 | 13.3 | 26.7 | 4.89 | 18.9 | 7.09 | 20.1 | 10.8 | 25.1 | 16.2 | 29.8 | 12.5 | 27.7 | 2.61 | 13.5 µM | 12.1 | 25.8 | 12.3 | 24.7 | 19.6 | 73.6 |
| C=CCN(CC=C)C(=O)c1cc(C)nc2c1c(=O)n(-c1ccccc1)c(=O)n2CCCN1CCN(c2ccccc2OC)CC1 | > 50 | > 50 | > 50 | > 50 | > 50 | > 50 | > 50 | > 50 | > 50 | > 50 | > 50 | > 50 | > 50 | > 50 µM | > 50 | > 50 | > 50 | > 50 | > 50 | > 50 |
| COc1ccc(/C=C2\CCC/C(=C\c3ccc(OC)c(OC)c3)C2=O)cc1OC | 3.63 | > 32.5 | 4.96 | > 32.5 | 16.7 | > 32.5 | 1.14 | 5.07 | 12.1 | > 32.5 | 14 | > 32.5 | 1.13 | 8.16 µM | 8.55 | > 32.5 | 1.4 | > 32.5 | 1.34 | > 32.5 |
| COC12C(COC(=O)NCCO)C3=C(C(=O)C(C)=C(N)C3=O)N1CC1NC12 (stereo unspecified) | > 264 | > 264 |  | > 264 |  | > 264 | 35.1 | 114 | 100 | > 264 |  | > 264 | 4.99 | 28.2 µM and 21.7 µM | 13.9 | 98.7 | 45.4 |  | 52.7 | > 264 |
| Cc1cc(Br)c(NC(=O)c2c(-c3c(Cl)cccc3Cl)noc2C)c(Br)c1 | > 100 | > 100 | > 100 | > 100 | > 100 | > 100 | > 100 | > 100 | > 100 | > 100 | > 100 | > 100 | 7.81 | > 100 µM | > 100 | > 100 | > 100 | > 100 | > 100 | > 100 |
